Assay results published in patent US8318768B2, “Bronchodilating alpha, beta-unsaturated isoquinoline amides” (Respiratorius AB, priority 2007, dated 2012).

Tests used:
Type in all cases: cell-based
[1] = test system: human bronchiols; assay: Leukotriene D4 induced contraction of human bronchiols, in vitro model (Biological Example 1); conditions: pre-treatment with compound 10 μM, Leukotriene D4 (10 nM) induced contraction, read-out: Remaining contraction (%)
Description: (§1) The usefulness of the compounds, as defined in the preceding embodiments, in treating, pretreating, revoking, mitigating, alleviating and/or preventing a condition of the respiratory apparatus characterized by bronchoconstriction, were evaluated in a complex and relevant in vitro model. The in vitro model was in accordance with the in vitro model disclosed in US 2006-0040254 A1 and by Skogvall, S., Berglund, M., Dalence-Guzman, M. F., Svensson, K., Jonsson, P., Persson, C. G. A and Sterner, O., in Pulmonary Pharmacology and Therapeutics, vol 20:3, 2007, p. 273-280. All references disclosed herein are hereby incorporated in their entirety by reference.
(§2) In short, lung tissue was obtained from patients undergoing lobectomia or pulmectomia due to lung carcinoma. From the bronchus of this tissue were rectangular oblong preparations obtained. The contraction induced by inflammatory mediators, such as Leukotriene D4, histamine, prostaglandin D2 or acetylcholine, in the presence and absence of the compound to be evaluated, were compared.
The remaining contraction, after pre-treatment with various compound examples at a concentration of 10 μM, of human bronchiols after Leukotriene D4 (10 nM) induced contraction according to the in vitro method described herein above are tabulated below.

[2] = test system: MCP-1; assay: Human PBMC in vitro model, MCP-1 production (Luminex-based assay); conditions: compound 10 μM or dexamethasone 1 μM, 24 h supernatant
Description: (§3) Cryopreserved PBMC's (SeraCare, # 72001) were thawed, washed with culture media (RPMI-1640 from Invitrogen, # 61870-036+10% heat inactivated fetal bovine serum from Invitrogen, # 10082-147+100 U/ml penicillin+[…] streptomycin) and tested for viability using Trypan blue (PBMC viability=96%). Cells were then resuspended to 1×10^6 cells/ml in culture media and 0.5 ml was plated into 24 well culture plates (5×10^5 cells/well) before incubation for 30 minutes at 37° C. with 5% CO2 prior to addition of a compound of the present invention (10 μM) or dexamethasone (1 μM). One hour thereafter, LPS (0.1 μg/ml, Salmonella abortus equi, Sigma, # L1887) was added and the cells were incubated for another 24 h before collection of the cell culture supernatants, which were assayed for the presence of MCP-1 and LTB4.
MCP-1 levels were quantified employing a Luminex-based assay according the manufacturer's instructions. Data was collected using a Luminex 100 (Luminex Corporation, Austin, Tex.). Standard curves were generated using a 5-parameter logistic curve fitting equation weighted by 1/y (StarStation V 2.0; Applied Cytometry Systems, Sacramento, Calif.). Each sample reading was interpolated from the appropriate standard curve. Calculated concentrations were multiplied by the appropriate dilution factor when necessary.
(§4) The inhibitory effect of compounds of the present invention, dexamethasone, and vehicle on production of MCP-1 and LTB4 in the PBMC model as described herein above, with (+LPS) or without (−LPS) LPS-induced mediator production, is tabulated below.

[3] = test system: LTB4; assay: Human PBMC in vitro model, LTB4 production (ELISA); conditions: compound 10 μM or dexamethasone 1 μM, 24 h supernatant
Description: as §3
LTB4 levels were quantified by ELISA following the manufacturer's instructions. Absorbance readings were detected using a ThermoMax microplate reader (Molecular Devices). Standard curves were generated using a 4-parameter logistic curve fitting equation (SoftMax Pro 4.7.1; Molecular Devices). Each sample reading was interpolated from the appropriate standard curve. Duplicate interpolated sample values were averaged and standard deviations were calculated. Calculated concentrations were multiplied by the appropriate dilution factor.
as §4

[4] = test system: human bronchiols; assay: Contraction of human bronchiols induced by acetylcholine, carbachol, histamine, methacholine or a mixture (Biological Example 2); conditions: compound 10 μM
Description: as §1, §2
(§5) The remaining contraction, after pre-treatment with various compound examples at a concentration of 10 μM, of human bronchiols or rat bronhi after the induction of contraction by treatment with the contractile agents acetylcholine (100 uM), carbachol (10 uM), histamine (100 uM), methacholine (100 uM) or a mixture of acetylcholine (100 uM), leukotriene D4 (LTD4) (0.01 uM) and histamine (100 uM), according to the in vitro method described herein above, are tabulated below: […]

[5] = test system: rat bronhi; assay: Contraction of rat bronchi induced by acetylcholine, carbachol or methacholine (Biological Example 2); conditions: compound 10 μM
Description: as §1, §2, §5

[6] = Mixture of Acetylcholine (100 uM), LTD4 (0.01 uM) and histamine (100 uM)

With C/C(=C\C(=O)N1CCc2c(Cl)c(O)c(O)c(Cl)c2C1)c1ccc(F)cn1 [Example 8, (E)-1-(5,8-dichloro-6,7-dihydroxy-3,4-dihydroisoquinolin-2(1H)-yl)-3-(5-fluoropyridin-2-yl)but-2-en-1-one] the activity at 10 µM [1] was 76%.
For C[C@@H]1C[C@H]2[C@@H]3CCC4=CC(=O)C=C[C@]4(C)[C@@]3(F)[C@@H](O)C[C@]2(C)[C@@]1(O)C(=O)CO [Dexamethasone, reference compound], the “Mean MCP-1” value ([2]; with LPS 0.1 μg/ml (+LPS)) was 1425.6 pg/mL, the “Mean MCP-1” value ([2]; without LPS (−LPS)) was 0 pg/mL and the “Mean LTB-4” value ([3]; with LPS 0.1 μg/ml (+LPS)) was 12.6 pg/mL. The “Mean LTB-4” value ([3]; without LPS (−LPS)) was 2.7 pg/mL.
O=C(/C=C/c1ccc(C(F)(F)F)nc1)N1CCc2c(Cl)c(O)c(O)c(Cl)c2C1 [Example 12, (E)-1-(5,8-dichloro-6,7-dihydroxy-3,4-dihydroisoquinolin-2(1H)-yl)-3-(6-(trifluoromethyl)pyridin-3-yl)prop-2-en-1-one] was tested, and the activity at 10 µM [1] was 6%, the “REMAINING CONTRACTION (%)” value ([4]; Acetylcholine (100 uM)) was 4% and the “REMAINING CONTRACTION (%)” value ([4]; Carbachol (10 uM)) was 10%. For the same molecule, the “REMAINING CONTRACTION (%)” value ([4]; Histamine (100 uM)) was 1%, the “REMAINING CONTRACTION (%)” value ([4]; Methacholine (100 uM)) was 7% and the “REMAINING CONTRACTION (%)” value [4, 6] was 12%. The “REMAINING CONTRACTION (%)” value ([5]; Acetylcholine (100 uM)) was 40%, the “REMAINING CONTRACTION (%)” value ([5]; Carbachol (10 uM)) was 27% and the “REMAINING CONTRACTION (%)” value ([5]; Methacholine (100 uM)) was 49%. For the same molecule, the “Mean MCP-1” value ([2]; with LPS 0.1 μg/ml (+LPS)) was 303.1 pg/mL, the “Mean MCP-1” value ([2]; without LPS (−LPS)) was 229.7 pg/mL and the “Mean LTB-4” value ([3]; with LPS 0.1 μg/ml (+LPS)) was 9.9 pg/mL. The “Mean LTB-4” value ([3]; without LPS (−LPS)) was 3.9 pg/mL.
In the case of C/C(=C\C(=O)N1CCc2c(Cl)c(O)c(O)c(Cl)c2C1)c1ccc(C(F)(F)F)nc1 [Example 13], the activity at 10 µM [1] is reported as 7%, the “REMAINING CONTRACTION (%)” value ([4]; Acetylcholine (100 uM)) is reported as 7% and the “REMAINING CONTRACTION (%)” value ([4]; Histamine (100 uM)) is reported as 3%. The “REMAINING CONTRACTION (%)” value [4, 6] was 18%, the “REMAINING CONTRACTION (%)” value ([5]; Acetylcholine (100 uM)) was 52% and the “Mean MCP-1” value ([2]; with LPS 0.1 μg/ml (+LPS)) was 256.7 pg/mL. The “Mean MCP-1” value ([2]; without LPS (−LPS)) was 217.1 pg/mL, the “Mean LTB-4” value ([3]; with LPS 0.1 μg/ml (+LPS)) was 9.8 pg/mL and the “Mean LTB-4” value ([3]; without LPS (−LPS)) was 4.3 pg/mL.
O=C(/C=C/c1ccccc1)N1CCc2c(Cl)c(O)c(O)c(Cl)c2C1 [Example 1, (E)-1-(5,8-dichloro-6,7-dihydroxy-3,4-dihydroisoquinolin-2(1H)-yl)-3-phenylprop-2-en-1-one] gave an activity at 10 µM [1] of 41%.
O=C(/C=C/c1ccc(F)cn1)N1CCc2c(Cl)c(O)c(O)c(Cl)c2C1 [Example 3, (E)-1-(5,8-dichloro-6,7-dihydroxy-3,4-dihydroisoquinolin-2-(1H)-yl)-3-(5-fluoropyridin-2-yl)prop-2-en-1-one] was tested, and the activity at 10 µM [1] was 24% and the “REMAINING CONTRACTION (%)” value [4, 6] was 43%.
O=C(/C=C/c1cccnc1)N1CCc2c(Cl)c(O)c(O)c(Cl)c2C1 [Example 2, (E)-1-(5,8-dichloro-6,7-dihydroxy-3,4-dihydroisoquinolin-2(1H)-yl)-3-(pyridin-3-yl)prop-2-en-1-one] showed an activity at 10 µM [1] of 44%.
Cc1nc(C(F)(F)F)ccc1/C=C/C(=O)N1CCc2c(Cl)c(O)c(O)c(Cl)c2C1 [Example 11, (E)-1-(5,8-dichloro-6,7-dihydroxy-3,4-dihydroisoquinolin-2(1H)-yl)-3-(2-methyl-6-(trifluoromethyl)pyridin-3-yl)prop-2-en-1-one] was tested, and the activity at 10 µM [1] was 9% and the “REMAINING CONTRACTION (%)” value [4, 6] was 25%.
For C/C(=C\C(=O)N1CCc2c(Cl)c(O)c(O)c(Cl)c2C1)c1cnc2ccccc2c1 [Example 5, (E)-1-(5,8-dichloro-6,7-dihydroxy-3,4-dihydroisoquinolin-2(1H)-yl)-3-(quinolin-3-yl)but-2-en-1-one], the activity at 10 µM [1] was 31%.
Cc1c(O)c(O)c(C)c2c1CCN(C(=O)/C=C/c1ccc(C(F)(F)F)nc1)C2 [Example 9, (E)-6,7-dihydroxy-5,8-dimethyl-1,2,3,4-tetrahydroisoquinoline 3-(6-(trifluoromethyl)pyridin-3-yl)acrylamide] gave an activity at 10 µM [1] of 75%.
With O=C(/C=C\c1ccccc1O)N1CCc2c(Cl)c(O)c(O)c(Cl)c2C1 [Example 7, (Z)-1-(5,8-dichloro-6,7-dihyroxy-3,4-dihydroisoquinolin-2(1H)-yl)-3-(2-hydroxyphenyl)prop-2-en-1-one] the activity at 10 µM [1] was 71%.
